Experimental data published in the supplement of paper PMC10307832.

Key:
Test in all cases: relative viability (nuclei count vs DMSO), 5 days (fraction); higher = more cells survive
COR-L 105 = test system: COR-L 105
Summary of the method: (§1)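 Lung cancer cell lines in 1536-well plates got either a single drug or a fixed anchor-drug dose together with five library-drug doses (not always all listed) in √10 steps, by pin tool, on the day after seeding. Nuclei were counted after 5 days, and relative viability is the treated-to-vehicle ratio of nuclei counts. Values are medians of duplicate plates.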

ChaGo-K-1 = test system: ChaGo-K-1
Summary of the method: as §1

EPLC-272H = test system: EPLC-272H
Summary of the method: as §1

HCC-15 = test system: HCC-15
Summary of the method: as §1

HCC-366 = test system: HCC-366
Summary of the method: as §1

HCC-44 = test system: HCC-44
Summary of the method: as §1

HCC-78 = test system: HCC-78
Summary of the method: as §1

HCC-827 = test system: HCC-827
Summary of the method: as §1

LCLC-103H = test system: LCLC-103H
Summary of the method: as §1

NCI-H1437 = test system: NCI-H1437
Summary of the method: as §1

NCI-H1792 = test system: NCI-H1792
Summary of the method: as §1

NCI-H1944 = test system: NCI-H1944
Summary of the method: as §1

NCI-H2085 = test system: NCI-H2085
Summary of the method: as §1

NCI-H2342 = test system: NCI-H2342
Summary of the method: as §1

NCI-H3122 = test system: NCI-H3122
Summary of the method: as §1

NCI-H358 = test system: NCI-H358
Summary of the method: as §1

NCI-H661 = test system: NCI-H661
Summary of the method: as §1

PC-14 = test system: PC-14
Summary of the method: as §1

SK-LU-1 = test system: SK-LU-1
Summary of the method: as §1

SK-MES-1 = test system: SK-MES-1
Summary of the method: as §1

UMC-11 = test system: UMC-11
Summary of the method: as §1

With `COCC1(CO)C(=O)C2CCN1CC2` (configuration not stated) [PRIMA-1MET] + Nc1nc2[nH]cc(CCc3ccc(C(=O)N[C@@H](CCC(=O)O)C(=O)O)cc3)c2c(=O)[nH]1 [Pemetrexed] (partner 0.2 µM) the relative viability (COR-L 105; first compound 0.2 µM) was 1.3, the relative viability (COR-L 105; first compound 0.6325 µM) was 1.17 and the relative viability (COR-L 105; first compound 2 µM) was 1.22. For the same compound, the relative viability (COR-L 105; first compound 6.325 µM) was 1.1, the relative viability (COR-L 105; first compound 20 µM) was 0.229 and the relative viability (ChaGo-K-1; first compound 0.2 µM) was 0.249. For the same compound, the relative viability (ChaGo-K-1; first compound 0.6325 µM) was 0.261, the relative viability (ChaGo-K-1; first compound 2 µM) was 0.26 and the relative viability (ChaGo-K-1; first compound 6.325 µM) was 0.247. The relative viability (ChaGo-K-1; first compound 20 µM) was 0.263, the relative viability (EPLC-272H; first compound 0.2 µM) was 0.35 and the relative viability (EPLC-272H; first compound 0.6325 µM) was 0.403. It also gave a relative viability (EPLC-272H; first compound 2 µM) of 0.314, a relative viability (EPLC-272H; first compound 6.325 µM) of 0.317 and a relative viability (EPLC-272H; first compound 20 µM) of 0.138. It also gave a relative viability (HCC-15; first compound 0.2 µM) of 0.213, a relative viability (HCC-15; first compound 0.6325 µM) of 0.214 and a relative viability (HCC-15; first compound 2 µM) of 0.212. For the same compound, the relative viability (HCC-15; first compound 6.325 µM) was 0.21, the relative viability (HCC-15; first compound 20 µM) was 0.217 and the relative viability (HCC-366; first compound 0.2 µM) was 0.187. For the same compound, the relative viability (HCC-366; first compound 0.6325 µM) was 0.203, the relative viability (HCC-366; first compound 2 µM) was 0.156 and the relative viability (HCC-366; first compound 6.325 µM) was 0.184. It also gave a relative viability (HCC-366; first compound 20 µM) of 0.0889, a relative viability (HCC-44; first compound 0.2 µM) of 0.748 and a relative viability (HCC-44; first compound 0.6325 µM) of 0.641. For the same compound, the relative viability (HCC-44; first compound 2 µM) was 0.681, the relative viability (HCC-44; first compound 6.325 µM) was 0.676 and the relative viability (HCC-44; first compound 20 µM) was 0.607. The relative viability (HCC-78; first compound 0.2 µM) was 0.916, the relative viability (HCC-78; first compound 0.6325 µM) was 0.886 and the relative viability (HCC-78; first compound 2 µM) was 0.914. It also gave a relative viability (HCC-78; first compound 6.325 µM) of 0.832, a relative viability (HCC-78; first compound 20 µM) of 0.864 and a relative viability (HCC-827; first compound 0.2 µM) of 0.221. The relative viability (HCC-827; first compound 0.6325 µM) was 0.144, the relative viability (HCC-827; first compound 2 µM) was 0.239 and the relative viability (HCC-827; first compound 6.325 µM) was 0.554. It also gave a relative viability (HCC-827; first compound 20 µM) of 0.275, a relative viability (LCLC-103H; first compound 0.2 µM) of 0.45 and a relative viability (LCLC-103H; first compound 0.6325 µM) of 0.503. For the same compound, the relative viability (LCLC-103H; first compound 2 µM) was 0.459, the relative viability (LCLC-103H; first compound 6.325 µM) was 0.499 and the relative viability (LCLC-103H; first compound 20 µM) was 0.451. The relative viability (NCI-H1437; first compound 0.2 µM) was 0.32, the relative viability (NCI-H1437; first compound 0.6325 µM) was 0.284 and the relative viability (NCI-H1437; first compound 2 µM) was 0.308. The relative viability (NCI-H1437; first compound 6.325 µM) was 0.298, the relative viability (NCI-H1437; first compound 20 µM) was 0.283 and the relative viability (NCI-H1792; first compound 0.2 µM) was 0.713. It also gave a relative viability (NCI-H1792; first compound 6.325 µM) of 0.947, a relative viability (NCI-H1792; first compound 20 µM) of 0.676 and a relative viability (NCI-H1944; first compound 0.2 µM) of 0.738. It also gave a relative viability (NCI-H1944; first compound 0.6325 µM) of 0.555, a relative viability (NCI-H1944; first compound 2 µM) of 0.535 and a relative viability (NCI-H1944; first compound 6.325 µM) of 0.519. The relative viability (NCI-H1944; first compound 20 µM) was 0.655, the relative viability (NCI-H2085; first compound 0.2 µM) was 0.936 and the relative viability (NCI-H2085; first compound 0.6325 µM) was 0.925. It also gave a relative viability (NCI-H2085; first compound 2 µM) of 0.549, a relative viability (NCI-H2085; first compound 6.325 µM) of 0.862 and a relative viability (NCI-H2085; first compound 20 µM) of 0.165. It also gave a relative viability (NCI-H2342; first compound 0.2 µM) of 0.789, a relative viability (NCI-H2342; first compound 0.6325 µM) of 0.852 and a relative viability (NCI-H2342; first compound 6.325 µM) of 0.691. The relative viability (NCI-H2342; first compound 20 µM) was 0.753, the relative viability (NCI-H3122; first compound 0.2 µM) was 0.18 and the relative viability (NCI-H3122; first compound 0.6325 µM) was 0.199. For the same compound, the relative viability (NCI-H3122; first compound 2 µM) was 0.206, the relative viability (NCI-H3122; first compound 6.325 µM) was 0.192 and the relative viability (NCI-H3122; first compound 20 µM) was 0.206. The relative viability (NCI-H358; first compound 0.2 µM) was 0.175, the relative viability (NCI-H358; first compound 0.6325 µM) was 0.159 and the relative viability (NCI-H358; first compound 2 µM) was 0.165. It also gave a relative viability (NCI-H358; first compound 6.325 µM) of 0.164, a relative viability (NCI-H358; first compound 20 µM) of 0.198 and a relative viability (NCI-H661; first compound 0.2 µM) of 0.954. The relative viability (NCI-H661; first compound 0.6325 µM) was 0.849, the relative viability (NCI-H661; first compound 2 µM) was 0.952 and the relative viability (NCI-H661; first compound 6.325 µM) was 0.963. The relative viability (NCI-H661; first compound 20 µM) was 0.928, the relative viability (PC-14; first compound 0.2 µM) was 0.124 and the relative viability (PC-14; first compound 0.6325 µM) was 0.148. For the same compound, the relative viability (PC-14; first compound 2 µM) was 0.114, the relative viability (PC-14; first compound 6.325 µM) was 0.148 and the relative viability (PC-14; first compound 20 µM) was 0.0292. For the same compound, the relative viability (SK-LU-1; first compound 0.2 µM) was 1.01, the relative viability (SK-LU-1; first compound 0.6325 µM) was 1.12 and the relative viability (SK-LU-1; first compound 2 µM) was 1.01. It also gave a relative viability (SK-LU-1; first compound 6.325 µM) of 0.955, a relative viability (SK-LU-1; first compound 20 µM) of 0.652 and a relative viability (SK-MES-1; first compound 0.2 µM) of 1.08. It also gave a relative viability (SK-MES-1; first compound 0.6325 µM) of 0.896, a relative viability (SK-MES-1; first compound 2 µM) of 0.901 and a relative viability (SK-MES-1; first compound 6.325 µM) of 0.92. The relative viability (SK-MES-1; first compound 20 µM) was 0.929, the relative viability (UMC-11; first compound 0.2 µM) was 0.866 and the relative viability (UMC-11; first compound 0.6325 µM) was 0.693. For the same compound, the relative viability (UMC-11; first compound 2 µM) was 0.836, the relative viability (UMC-11; first compound 6.325 µM) was 0.768 and the relative viability (UMC-11; first compound 20 µM) was 0.801.
